Results taken from US11731977B2, “SGC stimulators” (Cyclerion Therapeutics, Inc., priority 2016, dated 2023).
pEC50: −log10 of the molar value.

Tests used:
[1] = molecular target: T1, sGC enzyme (Homo sapiens, UniProt Q02108+Q02153); assay: cGMP GloSensor cell-based assay, 384-well format (Example 2a); settings: HEK293 GloSensor 40F cGMP cells; 10 μM DETA-NONOate; 50% of high control (30 μM Compound Y); read-out: Abs EC50
T1 construct: sGC enzyme activity values in HEK cells, determined by the GloSensor assay; host or cells: HEK293 cells stably expressing GloSensor 40F cGMP biosensor
T1 sequence (Q02153 1-619): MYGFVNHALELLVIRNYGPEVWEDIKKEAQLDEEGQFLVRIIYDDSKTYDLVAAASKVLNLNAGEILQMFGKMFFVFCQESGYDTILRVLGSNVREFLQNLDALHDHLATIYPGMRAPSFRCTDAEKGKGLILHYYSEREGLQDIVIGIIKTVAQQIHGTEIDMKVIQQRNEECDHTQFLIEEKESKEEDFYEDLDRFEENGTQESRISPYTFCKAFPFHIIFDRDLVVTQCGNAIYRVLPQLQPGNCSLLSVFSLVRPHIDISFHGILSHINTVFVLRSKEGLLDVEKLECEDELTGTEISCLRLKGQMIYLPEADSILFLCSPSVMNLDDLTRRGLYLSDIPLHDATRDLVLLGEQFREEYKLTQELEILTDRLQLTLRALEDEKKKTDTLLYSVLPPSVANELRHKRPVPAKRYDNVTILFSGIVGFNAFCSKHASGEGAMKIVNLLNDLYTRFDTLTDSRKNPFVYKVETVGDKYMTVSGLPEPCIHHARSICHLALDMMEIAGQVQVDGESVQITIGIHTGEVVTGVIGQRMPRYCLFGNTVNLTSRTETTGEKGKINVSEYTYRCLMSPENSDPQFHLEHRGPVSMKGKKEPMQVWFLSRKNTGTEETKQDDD
T1 sequence (Q02108 1-690): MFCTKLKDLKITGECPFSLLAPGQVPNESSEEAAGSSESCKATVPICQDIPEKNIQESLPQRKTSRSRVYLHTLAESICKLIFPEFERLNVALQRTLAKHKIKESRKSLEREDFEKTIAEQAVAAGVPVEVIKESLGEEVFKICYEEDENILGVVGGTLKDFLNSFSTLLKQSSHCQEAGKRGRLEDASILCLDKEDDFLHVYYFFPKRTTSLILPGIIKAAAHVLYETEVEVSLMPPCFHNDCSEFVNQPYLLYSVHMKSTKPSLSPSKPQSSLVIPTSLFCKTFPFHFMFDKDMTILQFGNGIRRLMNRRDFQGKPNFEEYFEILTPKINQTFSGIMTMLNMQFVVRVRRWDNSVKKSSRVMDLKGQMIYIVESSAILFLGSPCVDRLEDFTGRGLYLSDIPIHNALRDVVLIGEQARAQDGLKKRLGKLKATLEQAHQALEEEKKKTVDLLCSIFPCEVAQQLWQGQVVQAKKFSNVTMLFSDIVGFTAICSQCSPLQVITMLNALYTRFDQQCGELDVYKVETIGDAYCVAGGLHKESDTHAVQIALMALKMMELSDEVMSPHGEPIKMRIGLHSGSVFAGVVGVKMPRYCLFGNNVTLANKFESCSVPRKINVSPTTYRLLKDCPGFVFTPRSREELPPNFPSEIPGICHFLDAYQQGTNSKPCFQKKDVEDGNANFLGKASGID
Source text: Human embryonic kidney cells (HEK293) cells expressing GloSensor™ 40F cGMP (Part No: CS182801, Promega) were used to evaluate the activity of test compounds. The luminescent biosensors (engineered luciferase) that were incorporated into these cells detect cGMP formed by the compounds stimulating the sGC enzyme and emit luminescence.
cGMP GloSensor cells were maintained in Dulbecco's Modification of Eagle's Medium (DMEM) supplemented with fetal bovine serum (FBS, 10% final) and hygromycine (200 ug/ml). The day before assay, cells were plated in DMEM with 10% FBS in a 50 μL volume at a density of 1.5×10^4 cells/well in a poly-D-lysine coated 384-well flat white-bottom plate (Corning Cat No 35661). Cells were incubated overnight at 37° C. in a humidified chamber with 5% CO2. The next day, medium was removed and cells were replaced with 40 ul/well of GloSensor™, 2 mM (Promega Cat No E1291). Cells were treated for 90 minutes at 25° C. to allow the substrate to equilibrate in the cells. Test compounds and Diethylenetriamine NONOate (DETA-NONOate, or DETA-NO) was diluted to 3 mM (20×) in serum-free CO2 independent medium and serially diluted at 4× dilutions to create 5× dose curve from which 10 ul was added to the wells (x μM concentration for test compound solution and 10 μM concentration for DETA-NONOate solution; wherein x is one of the following final concentrations: 30000 nM, 7500 nM, 1875 nM, 468.8 nM, 117.2 nM, 29.29 nM, 7.320 nM, 1.830 nM, 0.460 nM, 0.114 nM, and 0.029 nM).
For the kinetics studies, luminescense was measured right away for 0.2 sec per well with Envision (Perkin Elmer). For endpoint SAR screening, data were collected after 55 min incubation at room temperature.
Data were normalized to a high control using the following equation: 100*(Sample−Low Control)/(High Control−Low Control), where the low control is the average of 16 samples treated with 1% DMSO, and the high control is the average of 16 samples treated with 30 μM of Compound Y depicted below. Data were fit using a 4-parameter fit (log(agonist) vs. response—variable slope) using GraphPad Prism Software v.5. n=2 for all compounds. The Absolute (Abs) EC50 was interpolated from the curve fit and is defined as the concentration at which a given compound elicits 50% of the high control response after data normalization as indicated above. Compounds failing to elicit a minimum response of 50% are reported as >30 μM or ND. For compounds run in duplicate or n higher than 2, the result herein given is the geometric mean of the several results obtained.

[2] = tested on: cGMP in rat primary neurons; assay: cGMP neuronal cell-based assay (Example 3); settings: Primary neuron; rat primary hippocampal neurons; 30 μM DETA-NO; cGMP by LC-MS/MS; 50% of high control (10 μM Compound Y); read-out: Abs EC50
Method: Rat primary neurons were isolated from fetuses of 18-day pregnant Sprague-Dawley females. The fetuses were collected in Hanks' balanced salt solution (HBSS) and brains were rapidly removed. The cerebral hippocampi were isolated and mechanically fragmented. Further tissue digestion was performed with 0.25% (wt/vol) trypsin solution in HBSS without Ca2+ and Mg2+ for 15 min at 37° C. After trypsination, cells were washed and resuspended in neurobasal medium supplemented with 0.5 mM L-glutamine, 12.5 uM glutamic acid, 2% B-27 and 100 U/mL penicillin, and 100 μg/mL streptomycin. Cells were plated at a density of 4×10^4 cells/well in a poly-D-lysine coated 384-well flat clear-bottom plate (Corning Cat No 354662). Cells were incubated 6-7 days at 37° C. in a humidified chamber with 5% CO2. Media was removed and cells were washed 1× with HBSS containing Ca2+ and Mg2+, and replaced with 40 uL HBSS containing 0.5 mM IBMX, and incubated for 15 minutes at 37° C. 10 uL of a 5× stock of test compounds with diethylenetriamine NONOate (DETA-NO) was added. Final concentration of DETA-NO was 30 μM. Cells were incubated for 20 min at 37° C. Medium was removed, 50 uL of ice-cold 10% acetic acid was added, and incubated for 60 minutes at 4° C. Following centrifugation at 4° C. for 5 minutes at 1000×g to pellet cell debris, the supernatant was aspirated to a clean plate and the samples were analyzed for cGMP content. cGMP concentrations were determined from each sample using LC-MS/MS.
Data were normalized to a high control using the following equation: 100*(Sample−Low Control)/(High Control−Low Control), where the low control is the average of 15 samples treated with 1% DMSO, and the high control is the average of 15 samples treated with 10 μM a known sGC stimulator Compound Y. Data were fit using a 4-parameter fit (log(agonist) vs. response—variable slope) using GraphPad Prism Software v.5. n=2 for all compounds. The Absolute EC50 was interpolated from the curve fit and is defined as the concentration at which a given compound elicits 50% of the high control response. Compounds failing to elicit a minimum response of 50% are reported as >30 μM. For compounds run in duplicate or n higher than 2, the result herein given is the geometric mean of the several results obtained.

[3] = Rat cerebrospinal fluid (CSF) pharmacokinetic properties (Example 4); format: in vivo; settings: male, Sprague-Dawley, 10 mg/kg PO, 1 h; for Kp uu at 1 h: unbound CSF/unbound plasma, read-out: Kp,uu (@ 1 h); for concentration at 1 h: CSF, read-out: CSF Conc. (nM @ 1 h)
Method: Protocol PK in rats was determined following oral dosing. For the oral (PO) experiments, a group of 6 male Sprague-Dawley rats with an indwelling catheter placed in the cistema magna were used. The PO group was dosed with 10 mg/kg or 1 mg/kg of a compound formulated as a solution in PEG400. PO doses were administered by oral gavage and delivered to the stomach using a syringe and gavage tube. Following oral dosage administration, the gavage tube was flushed with approximately 0.5 mL of water to ensure complete delivery of the full dose.
Plasma samples were collected as follows: samples of CSF and blood were collected at 1 hour, 2, and optionally at 4 hours post-dosing. CSF samples (0.05 mL) were collected through the intracisternal catheter. Blood samples (0.25 mL) were collected through retro-orbital sampling. These samples were kept on ice until processed for plasma. Blood samples were centrifuged at 3200 rpm for 5 minutes at approximately 5° C. within 1 hour of collection. Plasma was directly transferred to a 96-well plate tube (0.125 mL). Plug caps were placed on the tubes and the tubes frozen at approximately −70° C. and stored until analysis. Plasma was collected and analyzed for the presence of a compound.
Quantitation of Compounds. The compound in question and the internal standard were extracted from plasma and CSF by precipitation. Samples were analyzed using liquid chromatography (LC) with tandem mass spectrometric detection (MS/MS) using electrospray ionization. The standard curve range was from 1 to 1000 ng/mL. Results of the compounds described herein in this assay are illustrated in Table 4a below (10 mg/kg dose) and Tables 4b and 4c below (1 mg/kg).
Kp,uu is defined as the concentration ratio of unbound drug in CSF to unbound drug in plasma. Unbound drug in plasma (or free plasma concentration) is calculated by multiplying the total plasma concentration by the unbound fraction as determined by plasma protein binding. The CSF concentration is then divided by the free plasma concentration to determine the Kp,uu. (See e.g., Di et al., J. Med. Chem., 56, 2-12 (2013))

| SMILES | pEC50 [1] | pEC50 [2] | Kp uu at 1 h [3] | concentration at 1 h [3] [nM] |
| --- | --- | --- | --- | --- |
| FC(F)c1n[nH]c(-c2cn3ccnc3c(Cc3ccccc3)n2)n1 [Compound I-7, 8-Benzyl-6-(3-(difluoromethyl)-1H-1,2,4-triazol-5-yl)imidazo[1,2-a]pyrazine] | 6.00 to 7.00 | 6.00 to 7.00 |  |  |
| Fc1ccc(F)c(Cc2nc(-c3nc(C(F)F)n[nH]3)cn3ccnc23)c1 [Compound I-9, 8-(2,5-Difluorobenzyl)-6-(3-(difluoromethyl)-1H-1,2,4-triazol-5-yl)imidazo[1,2-a]pyrazine] | ≥ 7.00 | ≥ 7.00 |  |  |
| FC(F)(F)c1n[nH]c(-c2cn3ncnc3c(Cc3ccccc3)n2)n1 [Compound I-15, 8-Benzyl-6-(3-(trifluoromethyl)-1H-1,2,4-triazol-5-yl)-[1,2,4]triazolo[1,5-a]pyrazine] | 6.00 to 7.00 | 6.00 to 7.00 |  |  |
| Cc1ccc(Cc2nc(-c3nc(C(F)(F)F)n[nH]3)cn3ccnc23)cc1F [Compound I-27, 8-(3-Fluoro-4-methylbenzyl)-6-(3-(trifluoromethyl)-1H-1,2,4-triazol-5-yl)imidazo[1,2-a]pyrazine] | ≥ 7.00 |  | 0.2 | 41 |
| Fc1ccc(F)c(Cc2nc(-c3nc(C(F)(F)F)n[nH]3)cn3ccnc23)c1 [Compound I-8, 8-(2,5-Difluorobenzyl)-6-(3-(trifluoromethyl)-1H-1,2,4-triazol-5-yl)imidazo[1,2-a]pyrazine] | ≥ 7.00 | ≥ 7.00 |  |  |
| Fc1ccccc1Cc1nc(-c2nc(C(F)(F)C(F)(F)F)n[nH]2)cn2ccnc12 [Compound I-5, 8-(2-Fluorobenzyl)-6-(3-(perfluoroethyl)-1H-1,2,4-triazol-5-yl)imidazo[1,2-a]pyrazine] | ≥ 7.00 | ≥ 7.00 |  |  |
| FC(F)(F)c1n[nH]c(-c2cn3ccnc3c(Cc3ccccc3)n2)n1 [Compound I-6, 8-Benzyl-6-(3-(trifluoromethyl)-1H-1,2,4-triazol-5-yl)imidazo[1,2-a]pyrazine] | 6.00 to 7.00 | ≥ 7.00 |  |  |
| FC(F)(F)c1n[nH]c(-c2cn3ccnc3c(CCC(F)(F)C(F)(F)F)n2)n1 [Compound I-13, 8-(3,3,4,4,4-Pentafluorobutyl)-6-(3-(trifluoromethyl)-1H-1,2,4-triazol-5-yl)imidazo[1,2-a]pyrazine] | < 6.00 | < 6.00 |  |  |
| Cc1ccc(Cc2nc(-c3nc(C(F)F)n[nH]3)cn3ccnc23)cc1F [Compound I-28, 6-(3-(Difluoromethyl)-1H-1,2,4-triazol-5-yl)-8-(3-fluoro-4-methylbenzyl)imidazo[1,2-a]pyrazine] | ≥ 7.00 |  | 0.2 | 20 |
| Fc1ccc(Cc2nc(-c3nc(C(F)(F)F)n[nH]3)cn3ccnc23)cc1 [Compound I-12, 8-(4-Fluorobenzyl)-6-(3-(trifluoromethyl)-1H-1,2,4-triazol-5-yl)imidazo[1,2-a]pyrazine] | 6.00 to 7.00 | 6.00 to 7.00 |  |  |
